Patent publication US7282522B2, “Hydroxamic acid derivatives and the method for preparing thereof” (Amorepacific Corporation, priority 2003, dated 2007)

Tests used:
RARα = molecular target: T1, RARα (Homo sapiens, UniProt P10276); assay: RARE-luciferase reporter assay in transfected CV-1 cells (affinity to retinoic acid receptor), RARα; type: cell-based; conditions: treated 24 hours at final concentration 10^−4M, control group 1000
T1 construct: expressed in transfected cells; host or cells: CV-1 cells (ATCC)
T1 sequence (P10276 1-462): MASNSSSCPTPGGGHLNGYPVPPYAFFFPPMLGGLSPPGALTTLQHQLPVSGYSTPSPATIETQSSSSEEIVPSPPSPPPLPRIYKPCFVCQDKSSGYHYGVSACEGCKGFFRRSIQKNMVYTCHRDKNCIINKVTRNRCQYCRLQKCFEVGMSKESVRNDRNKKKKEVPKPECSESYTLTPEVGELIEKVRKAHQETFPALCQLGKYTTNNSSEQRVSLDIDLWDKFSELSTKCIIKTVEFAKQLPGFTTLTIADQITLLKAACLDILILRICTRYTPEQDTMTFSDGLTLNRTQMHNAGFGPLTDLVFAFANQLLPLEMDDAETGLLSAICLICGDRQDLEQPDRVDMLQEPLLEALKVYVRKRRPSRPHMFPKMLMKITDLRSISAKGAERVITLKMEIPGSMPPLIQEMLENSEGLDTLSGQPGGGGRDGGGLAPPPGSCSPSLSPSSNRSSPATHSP
Method in brief: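 CV-1 cells co-transfected with pECE-RARα or pECE-RARγ, RARE-tk-Luc reporter and β-galactosidase vector. Starting 24 h post-transfection, cells were treated for 24 h with compounds at a final 10^−4M; luciferase reporter read-out.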

collagenase = assay: Inhibition of collagenase expression in human fibroblasts (ELISA kit); type: cell-based; conditions: 10^−4M, 24 hours, serum-free medium, relative to control group = 100
Method in brief: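 Serum-starved human fibroblasts were treated for 24 h with 10^−4M test material in serum-free DMEM. Collagenase in the culture fluid was measured by sandwich ELISA read at 405 nm. Values are expressed as % of the untreated control (=100).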

RARγ = molecular target: T2, RARγ (Homo sapiens, UniProt P13631); assay: RARE-luciferase reporter assay in transfected CV-1 cells (affinity to retinoic acid receptor), RARγ; type: cell-based; conditions: treated 24 hours at final concentration 10^−4M, control group 5000
T2 construct: expressed in transfected cells; host or cells: CV-1 cells (ATCC)
T2 sequence (P13631 1-454): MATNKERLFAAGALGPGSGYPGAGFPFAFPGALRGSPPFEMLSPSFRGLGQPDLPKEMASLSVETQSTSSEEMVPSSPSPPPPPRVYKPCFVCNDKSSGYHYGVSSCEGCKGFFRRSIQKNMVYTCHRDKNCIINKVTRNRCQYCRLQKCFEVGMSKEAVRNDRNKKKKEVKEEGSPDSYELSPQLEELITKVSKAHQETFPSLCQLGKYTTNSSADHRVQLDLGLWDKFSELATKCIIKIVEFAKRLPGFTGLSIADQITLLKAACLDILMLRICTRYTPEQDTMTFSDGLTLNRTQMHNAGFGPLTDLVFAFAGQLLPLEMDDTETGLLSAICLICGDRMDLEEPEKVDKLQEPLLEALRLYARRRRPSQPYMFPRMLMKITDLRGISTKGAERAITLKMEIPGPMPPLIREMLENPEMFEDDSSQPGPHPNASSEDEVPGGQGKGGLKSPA
Method in brief: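 CV-1 cells in DMEM with 2.5% FBS, 5,000 per well, transfected 24 h after seeding with 10 ng pECE-RARα, pECE-RARγ, 100 ng RARE-tk-Luc reporter and 100 ng β-galactosidase vector. Read-out is RARE-driven luciferase.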

procollagen type I = assay: Effect on collagen biosynthesis (procollagen type I ELISA) in human fibroblasts; type: cell-based; conditions: 10^−4M, 24 hours, serum-free medium, relative to control group = 100
Method: Human fibroblasts were seeded into 24-well plate at 1×10^5 cells per well and then cultured to 90% of growth.
For each supernatant, procollagen production was measured with procollagen type I ELISA kit.

elastase = assay: Inhibition of elastase expression in human fibroblasts (ELISA kit); type: cell-based; conditions: 10^−4M, 24 hours, serum-free medium, relative to control group = 100
Method in brief: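 Elastase in fibroblast culture fluid quantified by sandwich ELISA: 3 h capture, then chromophore-conjugated secondary antibody, then colour development, stopped with 1M sulfuric acid. Absorbance read at 405 nm. Expression given as % of the untreated control absorbance, with control set to 100.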

white guinea pigs = assay: Phototoxicity test (UVA irradiation); conditions: for Evaluation (phototoxicity): 1%(w/v) solution, UVA 15 J/cm^2; for Phototoxic index: 50 μl of 1%(w/v) solution, UVA 320~380 nm 15 J/cm^2, observed 24, 48 and 72 hours
rabbits = assay: Primary skin irritation test on animals (Draize P.I.I.); conditions: depilated back; for P.I.I. (Primary Irritation Index): 0.5 ml of 1% solution in 1,3-butylene glycol:ethanol 7:3, observed 24 or 72 hours later; for Evaluation (skin irritation): 1% solution, according to Draize's P.I.I.

Structure (SMILES): Cc1ccc(N(C)C(=O)c2ccc(C(=O)NO)cc2)cc1 [Example 46, [4-(N-hydroxycarbamoyl)phenyl]-N-methyl-N-[4-methylphenyl]carboxyamide]
- Luciferase activity RARα (RARα): 13200
- Collagenase expression (%) (collagenase): 83%
- Luciferase activity RARγ (RARγ): 11123
- Collagen biosynthesis (%) (procollagen type I): 121%
- Elastase expression (%) (elastase): 80%
- Evaluation (phototoxicity) (white guinea pigs): No phototoxicity (lower value than 0.5, criterion value to be estimated as no phototoxicity)
- Phototoxic index (white guinea pigs): 0
- P.I.I. (Primary Irritation Index) (rabbits): 0.345
- Evaluation (skin irritation) (rabbits): No irritation

Structure (SMILES): Cc1cccc(NC(=O)c2ccc(C(=O)NO)cc2)c1 [Example 36, [4-(N-hydroxycarbamoyl)phenyl]-N-[3-methylphenyl]carboxyamide]
- Luciferase activity RARα (RARα): 16700
- Collagenase expression (%) (collagenase): 68%
- Luciferase activity RARγ (RARγ): 11200
- Collagen biosynthesis (%) (procollagen type I): 121%
- Elastase expression (%) (elastase): 79%
- Evaluation (phototoxicity) (white guinea pigs): No phototoxicity (lower value than 0.5, criterion value to be estimated as no phototoxicity)
- Phototoxic index (white guinea pigs): 0
- P.I.I. (Primary Irritation Index) (rabbits): 0.456
- Evaluation (skin irritation) (rabbits): No irritation

Structure (SMILES): Cc1ccc(NC(=O)c2ccc(C(=O)NO)cc2)cc1C [Example 42, [4-(N-hydroxycarbamoyl)phenyl]-N-[3,4-dimethylphenyl]carboxyamide]
- Luciferase activity RARα (RARα): 14500
- Collagenase expression (%) (collagenase): 78%
- Luciferase activity RARγ (RARγ): 11200
- Collagen biosynthesis (%) (procollagen type I): 116%
- Elastase expression (%) (elastase): 76%
- Evaluation (phototoxicity) (white guinea pigs): No phototoxicity (lower value than 0.5, criterion value to be estimated as no phototoxicity)
- Phototoxic index (white guinea pigs): 0
- P.I.I. (Primary Irritation Index) (rabbits): 0.987
- Evaluation (skin irritation) (rabbits): No irritation

Structure (SMILES): O=C(NO)c1ccc(NC(=O)c2ccccc2)cc1 [Example 1, N-[4-(N-hydroxycarbamoyl)phenyl]benzamide]
- Luciferase activity RARα (RARα): 10000
- Collagenase expression (%) (collagenase): 78%
- Luciferase activity RARγ (RARγ): 12000
- Collagen biosynthesis (%) (procollagen type I): 105%
- Elastase expression (%) (elastase): 79%
- Evaluation (phototoxicity) (white guinea pigs): No phototoxicity (lower value than 0.5, criterion value to be estimated as no phototoxicity)
- Phototoxic index (white guinea pigs): 0
- P.I.I. (Primary Irritation Index) (rabbits): 0.375
- Evaluation (skin irritation) (rabbits): No irritation

Structure (SMILES): Cc1ccc(C(=O)N(C)c2ccc(C(=O)NO)cc2)cc1 [Example 13, N-[4-(N-hydroxycarbamoyl)phenyl]-N-methyl-[4-methylphenyl]carboxyamide]
- Luciferase activity RARα (RARα): 12000
- Collagenase expression (%) (collagenase): 70%
- Luciferase activity RARγ (RARγ): 11200
- Collagen biosynthesis (%) (procollagen type I): 117%
- Elastase expression (%) (elastase): 84%
- Evaluation (phototoxicity) (white guinea pigs): No phototoxicity (lower value than 0.5, criterion value to be estimated as no phototoxicity)
- Phototoxic index (white guinea pigs): 0
- P.I.I. (Primary Irritation Index) (rabbits): 0.500
- Evaluation (skin irritation) (rabbits): No irritation

Structure (SMILES): O=C(NO)c1ccc(C(=O)NC23CC4CC(CC(C4)C2)C3)cc1 [Example 43, [4-(N-hydroxycarbamoyl)phenyl]-N-adamantyl carboxyamide]
- Luciferase activity RARα (RARα): 18900
- Collagenase expression (%) (collagenase): 77%
- Luciferase activity RARγ (RARγ): 10600
- Collagen biosynthesis (%) (procollagen type I): 130%
- Elastase expression (%) (elastase): 70%
- Evaluation (phototoxicity) (white guinea pigs): No phototoxicity (lower value than 0.5, criterion value to be estimated as no phototoxicity)
- Phototoxic index (white guinea pigs): 0
- P.I.I. (Primary Irritation Index) (rabbits): 0.456
- Evaluation (skin irritation) (rabbits): No irritation

Structure (SMILES): Cc1cccc(N(C)C(=O)c2ccc(C(=O)NO)cc2)c1 [Example 47, [4-(N-hydroxycarbamoyl)phenyl]-N-methyl-N-[3-methylphenyl]carboxyamide]
- Luciferase activity RARα (RARα): 12200
- Collagenase expression (%) (collagenase): 79%
- Luciferase activity RARγ (RARγ): 11700
- Collagen biosynthesis (%) (procollagen type I): 112%
- Elastase expression (%) (elastase): 83%
- Evaluation (phototoxicity) (white guinea pigs): No phototoxicity (lower value than 0.5, criterion value to be estimated as no phototoxicity)
- Phototoxic index (white guinea pigs): 0
- P.I.I. (Primary Irritation Index) (rabbits): 0.367
- Evaluation (skin irritation) (rabbits): No irritation

Structure (SMILES): CN(C(=O)c1ccccc1)c1ccc(C(=O)NO)cc1 [Example 12, N-[4-(N-hydroxycarbamoyl)phenyl]-N-methyl-benzamide]
- Luciferase activity RARα (RARα): 14500
- Collagenase expression (%) (collagenase): 64%
- Luciferase activity RARγ (RARγ): 11300
- Collagen biosynthesis (%) (procollagen type I): 122%
- Elastase expression (%) (elastase): 80%
- Evaluation (phototoxicity) (white guinea pigs): No phototoxicity (lower value than 0.5, criterion value to be estimated as no phototoxicity)
- Phototoxic index (white guinea pigs): 0
- P.I.I. (Primary Irritation Index) (rabbits): 0.410
- Evaluation (skin irritation) (rabbits): No irritation

Structure (SMILES): CCCCc1ccc(NC(=O)c2ccc(C(=O)NO)cc2)cc1 [Example 40, [4-(N-hydroxycarbamoyl)phenyl]-N-[4-butylphenyl]carboxyamide]
- Luciferase activity RARα (RARα): 14300
- Collagenase expression (%) (collagenase): 77%
- Luciferase activity RARγ (RARγ): 11200
- Collagen biosynthesis (%) (procollagen type I): 108%
- Elastase expression (%) (elastase): 90%
- Evaluation (phototoxicity) (white guinea pigs): No phototoxicity (lower value than 0.5, criterion value to be estimated as no phototoxicity)
- Phototoxic index (white guinea pigs): 0
- P.I.I. (Primary Irritation Index) (rabbits): 0.546
- Evaluation (skin irritation) (rabbits): No irritation

Structure (SMILES): CCCc1ccc(C(=O)Nc2ccc(CC(=O)NO)cc2)cc1 [Example 27, N-[4-(N-hydroxycarbamoylmethyl)phenyl][4-propylphenyl]carboxyamide]
- Luciferase activity RARα (RARα): 13920
- Collagenase expression (%) (collagenase): 87%
- Luciferase activity RARγ (RARγ): 11300
- Collagen biosynthesis (%) (procollagen type I): 112%
- Elastase expression (%) (elastase): 87%
- Evaluation (phototoxicity) (white guinea pigs): No phototoxicity (lower value than 0.5, criterion value to be estimated as no phototoxicity)
- Phototoxic index (white guinea pigs): 0
- P.I.I. (Primary Irritation Index) (rabbits): 0.568
- Evaluation (skin irritation) (rabbits): No irritation
